Numbers after ± are expanded uncertainties.
Conditions: 283.17 K, Liquid, Vibrating tube method

SMILES: FC(F)=C(F)C(F)(F)F [hexafluoropropene]
- mass density (6464.6 kPa): 1420.83 ± 1.4 kg/m3
- mass density (6531.5 kPa): 1421.22 ± 1.5 kg/m3
- mass density (6599.8 kPa): 1421.62 ± 1.5 kg/m3
- mass density (6668.2 kPa): 1422.01 ± 1.5 kg/m3
- mass density (6734.8 kPa): 1422.36 ± 1.5 kg/m3
- mass density (6802 kPa): 1422.82 ± 1.5 kg/m3
- mass density (6878.8 kPa): 1423.17 ± 1.5 kg/m3
- mass density (6945.1 kPa): 1423.6 ± 1.5 kg/m3
- mass density (7018.8 kPa): 1423.92 ± 1.5 kg/m3
- mass density (7085.3 kPa): 1424.29 ± 1.5 kg/m3
- mass density (7154.4 kPa): 1424.62 ± 1.5 kg/m3
- mass density (7220.3 kPa): 1425.09 ± 1.5 kg/m3
- mass density (7293 kPa): 1425.48 ± 1.5 kg/m3
- mass density (7359.6 kPa): 1425.9 ± 1.5 kg/m3
- mass density (7428.2 kPa): 1426.22 ± 1.5 kg/m3
- mass density (7493.3 kPa): 1426.61 ± 1.5 kg/m3
- mass density (7562.9 kPa): 1426.95 ± 1.5 kg/m3
- mass density (7634.7 kPa): 1427.34 ± 1.5 kg/m3
- mass density (7780.3 kPa): 1428.05 ± 1.5 kg/m3
- mass density (7854.7 kPa): 1428.44 ± 1.5 kg/m3
- mass density (7922.9 kPa): 1428.82 ± 1.5 kg/m3
- mass density (7991.9 kPa): 1429.21 ± 1.5 kg/m3
- mass density (8053 kPa): 1429.55 ± 1.5 kg/m3
- mass density (8093.3 kPa): 1429.79 ± 1.5 kg/m3
- mass density (8134.7 kPa): 1429.94 ± 1.5 kg/m3
- mass density (8175.7 kPa): 1430.23 ± 1.5 kg/m3
- mass density (8222.2 kPa): 1430.51 ± 1.5 kg/m3
- mass density (8262.6 kPa): 1430.66 ± 1.5 kg/m3
- mass density (8310.9 kPa): 1430.87 ± 1.5 kg/m3
- mass density (8353.2 kPa): 1431.08 ± 1.5 kg/m3
- mass density (8393.4 kPa): 1431.32 ± 1.5 kg/m3
- mass density (8434 kPa): 1431.55 ± 1.5 kg/m3
- mass density (8474.2 kPa): 1431.73 ± 1.5 kg/m3
- mass density (8517.4 kPa): 1432.02 ± 1.5 kg/m3
- mass density (8563.4 kPa): 1432.23 ± 1.5 kg/m3
- mass density (8609.7 kPa): 1432.53 ± 1.5 kg/m3
- mass density (8651.7 kPa): 1432.69 ± 1.5 kg/m3
- mass density (8693.8 kPa): 1432.88 ± 1.5 kg/m3
- mass density (8735.7 kPa): 1433.12 ± 1.5 kg/m3
- mass density (8779.9 kPa): 1433.38 ± 1.5 kg/m3
- mass density (8821.1 kPa): 1433.52 ± 1.5 kg/m3
- mass density (8871.9 kPa): 1433.93 ± 1.5 kg/m3
- mass density (8912.3 kPa): 1434 ± 1.5 kg/m3
- mass density (8953.6 kPa): 1434.33 ± 1.5 kg/m3
- mass density (8996.5 kPa): 1434.45 ± 1.5 kg/m3
- mass density (9044.1 kPa): 1434.75 ± 1.5 kg/m3
- mass density (9090.4 kPa): 1435.02 ± 1.5 kg/m3
- mass density (9132.2 kPa): 1435.25 ± 1.5 kg/m3
- mass density (9176.2 kPa): 1435.35 ± 1.5 kg/m3
- mass density (9217 kPa): 1435.66 ± 1.5 kg/m3
- mass density (9261 kPa): 1435.85 ± 1.5 kg/m3
- mass density (9303.9 kPa): 1436.08 ± 1.5 kg/m3
- mass density (9347.1 kPa): 1436.32 ± 1.5 kg/m3
- mass density (9392.3 kPa): 1436.51 ± 1.5 kg/m3
- mass density (9439 kPa): 1436.78 ± 1.5 kg/m3
- mass density (9480.9 kPa): 1436.91 ± 1.5 kg/m3
- mass density (9522.3 kPa): 1437.19 ± 1.5 kg/m3
- mass density (9569.5 kPa): 1437.37 ± 1.5 kg/m3
- mass density (9612.2 kPa): 1437.57 ± 1.5 kg/m3
- mass density (9656.4 kPa): 1437.81 ± 1.5 kg/m3
- mass density (9696.9 kPa): 1438.08 ± 1.5 kg/m3
- mass density (9737.5 kPa): 1438.29 ± 1.5 kg/m3
- mass density (9778 kPa): 1438.42 ± 1.5 kg/m3
- mass density (9820 kPa): 1438.63 ± 1.5 kg/m3
- mass density (9860.9 kPa): 1438.96 ± 1.5 kg/m3
- mass density (9908.7 kPa): 1439.08 ± 1.5 kg/m3

From the NIST ThermoML archive (doi:10.1021/je900596d)
